The structures appear in SMILES notation. pKi: −log10 of the molar value. A value given as a limit tells only on which side of the number the result lay.

The nature of data set [1]: Binding affinity to his-tagged OXA-48 (unknown origin) expressed in Escherichia coli BL21 (DE3) cells assessed as inhibition constant using nitrocefin as substrate by Morrison equation based analysis. The arrangement: species or system Bacteria.
Data set [2] relates to Escherichia coli. As to the kind of experiment: Synergistic antimicrobial activity against Escherichia coli expressing […] assessed as imipenem MIC at 128 ug/ml incubated for 18 hrs by microdilution method (reference value: 8 ug/ml). It is filed as functional. The conditions noted are these: dose 128 µg/ml. (In general: In broth dilution the organism is exposed to a series of concentrations in liquid medium.)

In data set [3] the test system is Escherichia coli. The data set is described as follows: Synergistic antimicrobial activity against Escherichia coli expressing […] assessed as imipenem MIC at 32 ug/ml incubated for 18 hrs by microdilution method (reference value: 8 ug/ml). To be noted: dose 32 µg/ml. The class given is functional.
The test system of data set [4] is Escherichia coli. As to the kind of experiment: Synergistic antimicrobial activity against Escherichia coli expressing […] assessed as imipenem MIC at 64 ug/ml incubated for 18 hrs by microdilution method (reference value: 8 ug/ml). The class given is functional. The conditions noted are these: dose 64 µg/ml.
The nature of data set [5]: Drug accumulation in Escherichia coli assessed per 10^12 CFU incubated for 10 mins under shaking condition by LC-MS/MS analysis. It is filed as ADME.
The test system of data set [6] is Escherichia coli. The data set is described as follows: Synergistic antimicrobial activity against Escherichia coli expressing […] assessed as imipenem MIC at 16 ug/ml incubated for 18 hrs by microdilution method (reference value: 8 ug/ml). The class given is functional. The conditions noted are these: dose 16 µg/ml.
Data set [7] concerns the target T1, Metallo-beta-lactamase type 2 (Bacteria, UniProt C7C422). The data set is described as follows: biochemical.
In data set [8] the test system is Escherichia coli. As to the kind of experiment: Synergistic antimicrobial activity against Escherichia coli expressing […] assessed as imipenem MIC at 8 ug/ml incubated for 18 hrs by microdilution method (reference value: 8 ug/ml). It is filed as functional. The conditions noted are these: dose 8 µg/ml.
Data set [9] addresses T1, Metallo-beta-lactamase type 2. As to the kind of experiment: biochemical. The source holds these as a separate data set.

T1 sequence (C7C422 whole entry): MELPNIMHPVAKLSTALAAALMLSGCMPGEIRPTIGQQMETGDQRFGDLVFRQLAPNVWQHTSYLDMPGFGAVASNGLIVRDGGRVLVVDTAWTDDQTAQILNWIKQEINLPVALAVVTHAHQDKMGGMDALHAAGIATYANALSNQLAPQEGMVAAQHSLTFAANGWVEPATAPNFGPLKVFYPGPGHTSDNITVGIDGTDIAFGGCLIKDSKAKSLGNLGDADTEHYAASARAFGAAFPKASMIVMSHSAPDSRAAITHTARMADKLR

On to `CN(C)C(=O)C1CCN(c2ccc(CNCc3ccccc3-c3cccc(C(=O)O)c3)cc2C#N)CC1`, for which, in data set [1], the pKi was 5.10.

On to `NCc1cccc(NCc2cccc(-c3ccc(C(=O)O)c(O)c3)n2)c1`, for which the MIC in [2] is 2 µg/mL; in data set [3], 4 µg/mL; in data set [4], 4 µg/mL; in data set [6] it was 4 µg/mL. Besides, in data set [5], the Drug uptake result is on record as “Active”.

As to `Cc1cccc(NCc2cccc(-c3ccc(C(=O)O)c(O)c3)c2)c1`, in data set [7], the pKi is < 4.00.

For the compound `NCc1cccc(NCc2ccnc(-c3ccc(C(=O)O)c(O)c3)c2)c1`, the MIC came to 4 µg/mL in data set [2], 8 µg/mL in [3], 4 µg/mL in [4] and 8 µg/mL in data set [6].

For `NCc1cc(O)cc(NCc2cccc(-c3ccc(C(=O)O)c(O)c3)c2)c1`, the MIC in data set [2], in data set [3], in data set [4] and in [6] was 4 µg/mL in each case.

For the compound `NCc1cccc(NCc2ccc(-c3ccc(C(=O)O)c(O)c3)o2)c1`, the MIC in data set [2], in [3], in [4] and in data set [6] was 4 µg/mL each time.

The compound `NCc1cccc(NCc2cccc(-c3ccc(C(=O)O)c(O)c3)c2)c1` gave a negative logarithm of the Ki (pKi) in data set [7] of 6.22. In addition, the MIC in data set [8], in [3], in data set [4] and in [6] was 4 µg/mL in each case. Also, the Drug uptake entry in data set [5] was “Active”.

`NCc1cccc(N2Cc3ccc(-c4ccc(C(=O)O)c(O)c4)cc3C2)c1` gave a pKi in [7] of 4.30. The MIC in data set [2], in data set [3], in data set [4] and in data set [6] was 8 µg/mL in each case.

Regarding `NCc1cccc(NCc2cc(-c3ccc(C(=O)O)c(O)c3)ccn2)c1`, the minimal inhibitory concentration (MIC) in data set [2] was determined as 4 µg/mL; in data set [3] it was 8 µg/mL; in data set [4] it was 4 µg/mL; in data set [6] it was 8 µg/mL.

With `CC(=O)NCc1cccc(NCc2cccc(-c3ccc(C(=O)O)c(O)c3)c2)c1`, the pKi in data set [7] was < 4.00.

`Cc1cc(CNc2cccc(CN)c2)cc(-c2ccc(C(=O)O)c(O)c2)c1`: the pKi in data set [7] is 6.30. In addition, the MIC in data set [8], in data set [3] and in [6] was 4 µg/mL in each case.

For the compound `CNCc1cccc(NCc2ccc(-c3ccc(C(=O)O)cc3)o2)c1`, the pKi in data set [7] is 5.05.

Turning to `CNC(=O)CCc1ccc(CNCc2cccc(NCc3ccc(-c4ccc(C(=O)O)c(O)c4)o3)c2)cc1`, the minimal inhibitory concentration (MIC) in data set [2], in [3], in [4] and in data set [6] was 8 µg/mL in each case.

In the case of `NCc1cccc(NCc2cc(C(=O)O)cc(-c3ccc(C(=O)O)c(O)c3)c2)c1`, in data set [7], the negative logarithm of the Ki (pKi) was 3.85.

For the compound `NCc1cccc(NCc2ccc(-c3cccc(C(=O)O)c3O)o2)c1`, the MIC in data set [2] was determined as 4 µg/mL; in [3], 4 µg/mL; in data set [4] it was 4 µg/mL; in data set [6] it was 8 µg/mL.

Take `CNCc1cccc(NCc2ccc(-c3ccc(C(=O)O)c(O)c3)o2)c1`: the minimum inhibitory concentration (MIC) in data set [2], in data set [3], in [4] and in data set [6] was 4 µg/mL throughout. For the same compound, the Drug uptake entry in [5] is “Not Active”.

Turning to `COc1cc(-c2cc(O)cc(C(=O)O)c2)ccc1C(=O)O`, the pKi in data set [1] was 6.22.

On to `NCc1cccc(NCc2cncc(-c3ccc(C(=O)O)c(O)c3)c2)c1`, for which the MIC stood at 4 µg/mL in data set [2], 8 µg/mL in [3], 8 µg/mL in [4] and 8 µg/mL in [6].

Take `CNCc1cccc(NCc2ccc(-c3cccc(C(=O)O)c3O)o2)c1`: the minimum inhibitory concentration (MIC) in [2] worked out at 4 µg/mL; in data set [3] it was 8 µg/mL; in data set [4] it was 8 µg/mL; in [6] it was 8 µg/mL.

Turning to `NCc1cccc(NCc2ccc(-c3ccc(C(=O)O)c(O)c3)s2)c1`, the pKi in data set [7] was 5.82. Further, the MIC in data set [2], in data set [3], in [4] and in data set [6] was 4 µg/mL each time.

In data set [7], `NCc1cccc(NC(=O)c2cccc(-c3ccc(C(=O)O)c(O)c3)c2)c1` had a pKi of 4.52. In addition, the MIC in data set [2], in data set [3], in data set [4] and in data set [6] was 8 µg/mL throughout.

Take `Nc1cccc(CCCNCc2ccccc2-c2cccc(C(=O)O)c2)c1`: in data set [1], the pKi is 3.89.

With `NCc1cccc(NCc2cc(O)cc(-c3ccc(C(=O)O)c(O)c3)c2)c1`, the MIC in data set [2], in data set [3], in data set [4] and in [6] was 4 µg/mL throughout.

For `CNCc1cccc(NCc2cccc(-c3ccc(C(=O)O)c(O)c3)c2)c1`, the minimal inhibitory concentration (MIC) in data set [2], in data set [3], in [4] and in data set [6] was 4 µg/mL in each case.

Take `CNCc1ccc(-c2ccc(C(=O)O)c(O)c2)o1`: the pKi in data set [9] is 3.30.

Usually pKi stands for −log10 of the Ki, conventionally taken in molar units. The term MIC denotes the smallest concentration in the dilution series that meets the test's criterion for growth inhibition.
